The subject of experiment [1] is cultured hippocampal network. Description: Evoked reverberatory activity of a cultured hippocampal network, patch clamping (polysynaptic current). Format: cell-based, rat. The text has this: In several studies, the NMDA-type glutamate receptor antagonist AP-5 was, for example, incorporated as a dopant into PPy-coated gold “macro-electrodes” (having an area of 0.77-cm^2). In general, macro-electrodes or macroelectrodes have dimensions greater than 1 mm. A hippocampal neuronal culture and patch clamping were used to test the effectiveness of AP5 release. The drug was released from the electrode into normal recording solution by applying 30 cyclic voltage stimuli. This solution, when added to the neuronal culture, blocked evoked reverberatory activity in the network. […] 280 trials (at 30 s intervals) of evoked activity of a cultured hippocampal network under 5 different conditions were made in several studies as follows: 1. control (ctrl); 2. with 25 μM D-AP5 (AP5); 3. wash with recording solution that soaked the macroelectrode without voltage pulses (wash1); 4. with recording solution containing electrically released AP5 (AP5_r); 5. wash with normal recording solution (wash2). […] FIGS. 3A-3E sets forth example traces of polysynaptic current with one sample trace for each test condition. The scale bar in FIGS. 3A-E is 0.5 nA, 1 s.
For orientation: The patch-clamp technique gives a direct electrical read-out from membranes.

Experiment [2] concerns low-density neuronal network. Description: Patch clamp recording of monosynaptic currents in low-density neuronal network on PPy-modified MED64 after command signal. Format: cell-based. The text has this: FIG. 6A is a photomicrograph image of a low-density neuronal network growing on a conducting polymer modified multielectrode array (MED64 available from Panasonic). The platinum coated electrodes are modified with the conducting polymer poly-pyrrole (PPy) containing either CNQX or chloride and phosphate ions (P) from PBS (blank release control). Release of the drug is affected by a “command signal,” which is the delivery of a voltage pulse (−2.5 V, 200 ms). Neuron “firing,” the generation of action potentials, is an all or none phenomenon. Synaptic currents are a continuous and graded phenomenon. For this reason synaptic currents recorded by patch electrodes better reflect the release and diffusion of the synaptic inhibitor CNQX, compared to action potentials recorded by the extracellular electrodes. To monitor the effect of release, individual cells in the network are patch clamped (wherein the patched cell is indicated by an arrow in FIG. 6A). The experimental protocol is described graphically in FIG. 6B. Neural stimulations (ns1,2, . . . ,8) are delivered through the substrate electrodes (but not the releasing electrode). The command signal starts 300 ms prior to ns2, and the currents are recorded by the patch electrode. […] FIG. 6C sets forth 8 columns corresponding to ns1 . . . 8, and 6 rows corresponding to individual trials. […]

For experiment [3], the system named is neuronal cultures from E18 rat cortices. Description: Extracellular recording of spontaneous spiking on MED64 microelectrodes coated with polypyrrole/CNQX after current stimulus. In kind it is cell-based. The text has this:
CNQX is an AMPA type glutamate receptor antagonist which inhibits excitatory neural transmission. We electrodeposited polypyrrole/CNQX on the microelectrodes of MED64 probes which were than plated with neuronal cultures from E18 rat cortices. When spontaneous activity was observed on an electrode bearing a CNQX/PPy film, a current stimulus (four 1 s-long pulses of −5 μA with 200 ms refractory periods in between) was applied to the electrode. Recordings were taken before and after the stimulus to observe any inhibition and recovery (during the stimulation it was not possible to record from the particular electrode given the pulse).
It was observed that neural spiking disappeared after applying the stimulus to an electrode bearing the PPy/CNQX. And at a later time point action potentials from the same cell (determined by examination of the waveforms in Offline Sorter and Wave Tracker, Plexon Inc.) reappeared on the electrode and the rate returned to baseline (determined by pre-stimulus control recordings). […] We determined, through repeated release, inhibition and recovery cycles, a time course of inhibition and recovery (see FIG. 5B) that appears consistent with the published effect of CNQX and with the theoretical estimate of CNQX diffusion in solution. In the studies of FIG. 5B, repeated CNQX release trials were performed to determine a time course of recovery. […]

Structures are written as SMILES.

Take `N[C@H](CCCP(=O)(O)O)C(=O)O` [AP5, 2-amino-5-phosphonopentanoic acid]: the “reverberatory activity (polysynaptic current)” value was “completely blocked” in experiment [1] (added AP5, 25 μM D-AP5 in recording solution) and “completely blocked” in experiment [1] (recording solution containing AP5 electrically released from PPy macroelectrode by 30 cyclic voltage stimuli (AP5_r)).

As for `N#Cc1cc2nc(O)c(O)nc2cc1[N+](=O)[O-]` [CNQX, 6-cyano-7-nitroquinoxaline-2,3-dione], the “monosynaptic current following release (individual trial, FIG. 6C)” value in experiment [2] (cell close to a CNQX containing electrode) is reported as “almost completely abolished”. In addition, the “size of monosynaptic currents following command signal” value in experiment [2] (voltage pulse −2.5 V, 200 ms to electrode with PPy film containing CNQX) is “significant decrease”. The “neuronal spiking on the releasing/recording electrode after release” value in experiment [3] (four 1 s pulses of −5 μA, transient, with subsequent recovery to baseline) was “suppression of neuronal spiking”. Moreover, the “spiking activity on neighboring electrodes after release” value in experiment [3] (inter-electrode distance of 212 μm) is reported as “did not affect spiking activity on neighboring electrodes”.

Source of the values: patent US20090012446A1, “DEVICES, SYSTEMS AND METHODS FOR RELEASE OF CHEMICAL AGENTS” (priority 2007, published 2009).
